Results as given in patent US4432983A (Research Corporation, priority 1981, dated 1984).
“Also recorded” adds a separate entry of the source.

Tests used:
[1] = target: histamine H1-receptor (isolated guinea pig ileum) (Cavia porcellus, UniProt P31389); assay: Histamine H1-receptor antagonism: histamine-induced contraction of isolated guinea pig ileum; conditions: result in words, 1×10^-6 M
Experimental: Compounds 11, 17, 18, and 19 were screened for H1 -antihistaminic activity by observing if any significant blockage of histamine-induced contraction of the isolated guinea pig ileum occurred. After sacrificing the guinea pig by a blow to the head, longitudinal segments of the terminal ileum were removed and freed of mesentery and blood vessels. The same apparatus and physiological solution employed in the atrial preparation were used in these experiments. The tissue was loaded with a 500 mg tension and adjustments were made repeatedly until the baseline stabilized at this tension load. Atropine sulfate (1×10^-6 M) was added to block the influence of endogenously stored acetylcholine and the preparation was allowed to equilibrate for 15 minutes before any other compounds were added. The concentration of test compound used was 1×10^-6 M. Visual determination of the absence of significant reduction in histamine-induced contractions of the ileum in the presence and absence of each test compound was interpreted as an absence of H1 -antihistaminic activity. Generally, H1 -antagonism is considered to be potent if significant reduction in ileal contractility occurs with antagonist concentrations less than micromolar.

[2] = target: T1, histamine H2-receptor (isolated guinea pig right atrium) (Cavia porcellus, UniProt P47747); assay: Histamine H2-receptor antagonism: histamine-induced chronotropic response of isolated guinea pig right atrium; conditions: for ED50 of histamine (95% CL): histamine ED50 for increase in heart rate, 10^-6 M propranolol; for ED50 of histamine (95% CL) / Slope (95% CL): alone (control) or in presence of 10^-6 M compound, 95% CL in brackets; for histamine H2-receptor antagonist activity / slope / shift of the histamine log dose-response curve in presence of compound: result in words; for histamine H2-receptor antagonist activity: 10^-6 M, guinea pig right atrium; for Slope (95% CL): slope of histamine log dose-response regression line; for ED50 of histamine on the right atrium: histamine alone or with 10^-6 M antagonist, ± as printed in text
T1 construct: All other tissue was carefully trimmed away, leaving only the right atrium; from tissue; host or cells: isolated right atrium of guinea pig (Hartley strain) heart
T1 sequence (P47747 whole entry): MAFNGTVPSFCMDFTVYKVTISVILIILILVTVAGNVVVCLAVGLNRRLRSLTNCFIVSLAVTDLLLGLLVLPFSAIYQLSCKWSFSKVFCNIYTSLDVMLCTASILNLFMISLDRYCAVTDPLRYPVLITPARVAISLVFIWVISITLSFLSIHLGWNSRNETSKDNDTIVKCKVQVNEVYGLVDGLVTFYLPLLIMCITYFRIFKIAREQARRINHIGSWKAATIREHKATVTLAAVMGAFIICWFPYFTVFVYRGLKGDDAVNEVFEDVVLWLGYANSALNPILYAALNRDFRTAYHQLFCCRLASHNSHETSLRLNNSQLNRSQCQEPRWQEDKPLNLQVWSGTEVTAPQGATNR
Experimental: Guinea pigs (Hartley strain) of either sex (400-700 g) were allowed at least two weeks acclimation period. The animals were housed two per cage in wire-meshed bottom stainless steel cages in animal quarters maintained on a 12 hour light:12 hour dark cycle with ambient temperature of approximately 24° C. Food (Ralston-Purina guinea pig chow #5025) and water were provided ad libitum.
(§1) The animals were stunned by a blow to the head and the heart was quickly removed and placed in Tyrode's solution (composition in g/L of distilled water: NaCl, 8.00; KCl, 0.20; MgSO4.7 H2 O, 0.10; CaCl2, 0.20; NaH2 PO4, 0.05; NaHCO3, 1.00; glucose, 1.00) at room temperature. All other tissue was carefully trimmed away, leaving only the right atrium. The base of the atrium was attached to a fixed pin in a 50 mL Magnus bath of the overflow type, while the atrial apex was similarly connected to a physiograph (Narco Bio-Systems) via a photoelectric force transducer (Narco Bio-Systems, sensitivity=0.05 g/cm). A 400 mg tension was constantly applied to the tissue. The Magnus bath was surrounded by water maintained at 37° C. with a constant temperature circulating pump. The bath was continually oxygenated (95% O2, 5% CO2) via a sintered glass gas delivery tube directly beneath the tissue support base.
Propanolol (1×10^-6 M) was added to each preparation in order to eliminate the influence of endogenously stored catecholamine release. Following the addition of propanolol, test compound was added and the tissue was allowed to equilibrate for 30 minutes.
Solutions of the test compounds were similarly prepared.
A straight line was fitted to the data points of each determination within each group by linear regression analysis. The slope and the ED50 were calculated from the regression line, the slopes and ED50 values of each group were averaged, and the standard deviations were calculated. Calculation of the linear regression gave values for the correlation coefficient (r) slope, average of x values, average of y values, and log ED50. With this information a straight line representing a mean of the data from the separate determinations of each group could be plotted, i.e. a straight line passing through the mean x value and the mean y value and having the mean slope. The 95 percent confidence limits were calculated using the following formula: confidence limits=±ts√N where t=Student's t value, s=standard deviation, and N=number of determinations.

isolated right atrium = assay: Agonist activity: effect of compound alone on heart rate or force of isolated right atrium; set-up: species or system guinea pig; conditions: cumulative additions, 10^-5 to 10^-3 M
Experimental: as §1
A KB value was not calculated since the utility of these values is contingent upon the presence of competitive inhibition. […] A non-competitive component of the antagonism would be expected to depress the curve. […] An additional experiment adding only 11 to the bath was carried out in an attempt to detect possible interfering agonist activity. […] The reason for this atypical curve is not known.

peptic ulcers = conditions: cited from earlier work
H2-receptor = conditions: previously reported; read-out: KB (apparent dissociation constant), previously reported; cited from earlier work
[3] = system: H2-receptor (guinea pig isolated right atrium); conditions: cited from earlier work
[4] = system: histamine-induced gastric acid secretion; conditions: dogs; cited from earlier work

histamine H1-receptor (isolated guinea pig ileum), sequence (P31389 whole entry): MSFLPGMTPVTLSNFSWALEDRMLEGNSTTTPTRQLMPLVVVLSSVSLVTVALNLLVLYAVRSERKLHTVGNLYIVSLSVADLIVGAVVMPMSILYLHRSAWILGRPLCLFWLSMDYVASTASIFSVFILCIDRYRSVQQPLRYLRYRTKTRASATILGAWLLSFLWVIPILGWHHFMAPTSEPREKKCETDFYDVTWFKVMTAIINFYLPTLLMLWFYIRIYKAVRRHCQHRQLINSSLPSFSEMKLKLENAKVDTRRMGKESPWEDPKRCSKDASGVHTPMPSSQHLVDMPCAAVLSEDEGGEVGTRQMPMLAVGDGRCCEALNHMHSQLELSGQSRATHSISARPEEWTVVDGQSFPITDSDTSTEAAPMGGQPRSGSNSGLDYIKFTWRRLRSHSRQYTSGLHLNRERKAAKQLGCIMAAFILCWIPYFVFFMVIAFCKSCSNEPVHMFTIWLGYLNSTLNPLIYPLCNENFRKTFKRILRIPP

With CNC(=S)N[C@H]1C[C@H]2CC[C@@H](C1)N2Cc1nc[nH]c1C [Compound 17, N-Methyl-N'-[8-(5-methylimidazol-4-yl)methyl-1αH,5αH-nortropan-3α-yl]thiourea] as the compound, how does the H1-antihistaminic activity [1] read?
Its H1-antihistaminic activity is “None of these compounds demonstrated significant histamine antagonist activity”.

And the “ED50 of histamine (95% CL)” value [2]?
Its value is 11.0 (4.37-27.5) × 10^-7 M.

What about the “histamine H2-receptor antagonist activity” value [2] of the same compound?
Its value is “without any significant activity; also recorded: None of these compounds demonstrated significant histamine antagonist activity”.

What about the “Slope (95% CL)” value [2] of the same compound?
The value was 0.64 (0.18-1.10).

Which H1-antihistaminic activity [1] does the source give for CNC(=NC#N)N[C@@H]1C[C@H]2CC[C@@H](C1)N2Cc1nc[nH]c1C [Compound 19, N"-Cyano-N-methyl-N'-[8-(5-methylimidazol-4-yl)methyl-1αH,5αH-nortropan-3β-yl]guanidine] here?
Its H1-antihistaminic activity is “None of these compounds demonstrated significant histamine antagonist activity”.

And the “ED50 of histamine (95% CL)” value [2]?
Its value is 6.92 (0.22-138.0) × 10^-7 M.

And the “histamine H2-receptor antagonist activity” value [2]?
Its value is “without significant activity; also recorded: None of these compounds demonstrated significant histamine antagonist activity”.

And the “Slope (95% CL)” value [2]?
The value was 0.58 (0.23-0.93).

For CNC(=S)N[C@@H]1C[C@H]2CC[C@@H](C1)N2Cc1nc[nH]c1C [Compound 11, N-Methyl-N'-[8-(5-methylimidazol-4-yl)methyl-1αH,5αH-nortropan-3β-yl]thiourea], which H1-antihistaminic activity [1] is on record?
The H1-antihistaminic activity was “none of these compounds demonstrated significant H1 -antihistiminic activity”.

And the “effect on heart rate or force of isolated right atrium, compound alone” value (isolated right atrium)?
The value was “without effect on heart rate or force”.

What about the “maximum response obtained with histamine in presence of compound” value ([2]; 10^-6 M compound) of the same compound?
Its value is 100%.

What about the “ED50 of histamine (95% CL)” value [2] of the same compound?
Its value is 40.7 (27.5-60.3) × 10^-7 M.

And the “slope / shift of the histamine log dose-response curve in presence of compound” value ([2]; 10^-6 M compound)?
Its value is “significantly steeper (P<0.05) than for metiamide; also recorded: shifted to higher concentrations”.

And the “histamine H2-receptor antagonist activity” value [2]?
The value was “active; also recorded: approximately the same antagonist activity as metiamide”.

And the “histamine H2-receptor antagonist activity” value ([2]; listed as β-isomer)?
The value was “high H2 -antagonist activity”.

What about the “Slope (95% CL)” value [2] of the same compound?
The value was 0.99 (0.95-1.03).

Which “healing of peptic ulcers” value (peptic ulcers; clinical trials) does the source give for CNC(=S)NCCSCc1nc[nH]c1C [metiamide, reference compound] here?
The value was “effective in promoting the healing of peptic ulcers”.

And the “safety in clinical use” value (peptic ulcers)?
Its value is “found to produce agranulocytosis”.

What about the Kb ([2]; KB=[B]/(dose ratio-1), 10^-6 M antagonist, read-out: KB (apparent dissociation constant)) of the same compound?
The Kb was 200 nM.

What about the “ED50 of histamine (95% CL)” value [2] of the same compound?
Its value is 49.0 (30.9-77.6) × 10^-7 M.

What about the “ED50 of histamine on the right atrium” value [2] of the same compound?
Its value is 49.0±12.0 ×10^-7 M.

And the “slope / shift of the histamine log dose-response curve in presence of compound” value ([2]; 10^-6 M compound)?
The value was “parallel shift of the dose-response curves of histamine”.

And the “histamine H2-receptor antagonist activity” value [2]?
The value was “significant antagonism of the chronotropic effect of histamine”.

What about the “Slope (95% CL)” value [2] of the same compound?
Its value is 0.47 (0.41-0.53).

What about the Kb (H2-receptor) of the same compound?
Its Kb is 920 nM.

For CNC(=C[N+](=O)[O-])NCCSCc1ccc(CN(C)C)o1 [Ranitidine], which H2 antagonism [3] is on record?
The H2 antagonism was “competitive antagonist, more potent than cimetidine”.

What about the “prevention of histamine-induced gastric acid secretion” value [4] of the same compound?
The value was “more potent than cimetidine”.

Which H1-antihistaminic activity [1] does the source give for CNC(=NC#N)N[C@H]1C[C@H]2CC[C@@H](C1)N2Cc1nc[nH]c1C [Compound 18, N"-Cyano-N-methyl-N'-[8-(5-methylimidazol-4-yl)methyl-1αH,5αH-nortropan-3α-yl]guanidine] here?
The H1-antihistaminic activity was “None of these compounds demonstrated significant histamine antagonist activity”.

What about the “ED50 of histamine (95% CL)” value [2] of the same compound?
Its value is 11.0 (5.01-24.0) × 10^-7 M.

What about the “histamine H2-receptor antagonist activity” value [2] of the same compound?
Its value is “without significant activity; also recorded: None of these compounds demonstrated significant histamine antagonist activity”.

What about the “Slope (95% CL)” value [2] of the same compound?
The value was 0.64 (0.18-1.10).

What does the source list for CN/C(=N/CCSCc1nc[nH]c1C)NC#N [cimetidine, reference compound]?
safety in clinical use (peptic ulcers): generally a safe agent; ED50 of histamine (95% CL) [2]: 49.0 (43.7-55.0) × 10^-7 M; ED50 of histamine on the right atrium [2]: 49.0±12.0 ×10^-7 M; histamine H2-receptor antagonist activity [2]: significant antagonism of the chronotropic effect of histamine; Slope (95% CL) [2]: 0.67 (0.28-1.06)

For NCCc1c[nH]cn1 [histamine, reference compound], which “Slope (95% CL)” value [2] is on record?
The value was 0.63 (0.50-0.76).
